This note sets out measurements from patent US20160017048A1, “TARGETING CD138 IN CANCER” (priority 2013, published 2016).

Structures are written as SMILES.

For experiment [1], the system named is iC9 suicide gene. The experiment in a line: in vitro elimination of transduced T cells by AP1903 activation of iC9. It is filed as cell-based. Particulars: within 24 hrs of in vitro exposure to AP1903 (20-50 nM). Here is the method:
A stable producer line with a titer >10^6 per mL may be developed. The T-cell transduction efficiency may range from 30% to 40% in hypoxia (FIG. 3). Redirected T cells can eliminate CD138+ targets in coculture experiments in hypoxia and can be rapidly eliminated (>90% of transduced cells) within 24 hrs of in vitro exposure to AP1903 (20-50 nM), the small molecule dimerizer that activates the iC9 suicide gene.

Experiment [2] concerns iC9 suicide gene. Kind of experiment: in vivo elimination of hCAR.CD138 T cells by AP1903 in patients. On the set-up: species or system human. Particulars: within 3 hours of AP1903 administration. The source says: Persistence and expansion of transferred T cells are estimated using immunophenotype and real-time quantitative PCR assay (Q-PCR) in DNA extracted from PB collected at different time points after T-cell infusions. BM samples are collected at week 6 as part of the clinical evaluation of these patients. Plasma samples are collected and snap frozen at intervals to detect IL-2, IL6, IFNγ and TNFα released by T cells in vivo. One can also seek clinical evidence of antitumor activity by monitoring paraprotein levels and PC BM infiltration at 6, 12 and 24 weeks, for example. Patients are closely monitored for the occurrence of toxicity according to NCI criteria. In the case of grade III-IV toxicity, patients are treated with AP1903 to activate the iC9 gene as previously reported. The iC9 effects are quantified by measuring the loss of CAR+ circulating cells and by changes in the iC9 transgene by QPCR.
The molecular signal of the CAR (which is hypoxia independent) is detected both in PB and BM samples by week 6, even though there may be higher signal in the BM because of the accumulation of CAR T cells. The expression of the CAR by flow cytometry in T cells (which is hypoxia dependent, as it detects protein synthesis) is anticipated to be much higher in BM as compared to PB because MM BM is hypoxic. […]

In turn, `CC[C@H](C(=O)N1CCCC[C@H]1C(=O)O[C@H](CCc1ccc(OC)c(OC)c1)c1cccc(OCC(=O)NCCNC(=O)COc2cccc([C@@H](CCc3ccc(OC)c(OC)c3)OC(=O)[C@@H]3CCCCN3C(=O)[C@@H](CC)c3cc(OC)c(OC)c(OC)c3)c2)c1)c1cc(OC)c(OC)c(OC)c1` [AP1903] had a transduced cells eliminated in the experiment on iC9 suicide gene [1] greater than 90%. The hCAR.CD138T eliminated in the experiment on iC9 suicide gene [2] was greater than 90%.
